What all share (format): in vivo
Series [1] relates to Diabrotica balteata (corn root worm). The experiment in a line: Activity against Diabrotica balteata (corn root worm), maize sprouts sprayed. As to conditions: for percent effect (mortality or growth inhibition) at 200 ppm: 96 h, application rate 200 ppm, L2 larvae, 4 days after infestation, read-out: effect in at least one of the two categories (mortality or growth inhibition). As for the experimental part: Maize sprouts placed onto an agar layer in 24-well microtiter plates were treated with aqueous test solutions prepared from 10′000 ppm DMSO stock solutions by spraying. After drying, the plates were infested with L2 larvae (6 to 10 per well). The samples were assessed for mortality and growth inhibition in comparison to untreated samples 4 days after infestation.

Series [2] concerns Myzus persicae (Green Peach Aphid). The series can be described thus: Activity against Myzus persicae (green peach aphid): feeding/contact activity. The following applies: for mortality at 200 ppm: Myzus persicae, 144 h, application rate 200 ppm, feeding/contact, mixed ages, 6 days after infestation. As for the experimental part:
Sunflower leaf discs were placed onto agar in a 24-well microtiter plate and sprayed with aqueous test solutions prepared from 10′000 ppm DMSO stock solutions. After drying, the leaf discs were infested with an aphid population of mixed ages. The samples were assessed for mortality 6 days after infestation.

Series [3] concerns Plutella xylostella (Diamond Back Moth). The series can be described thus: Activity against Plutella xylostella (diamond back moth), artificial diet. The following applies: for percent effect (mortality or growth inhibition) at 200 ppm: 120 h, application rate 200 ppm, L2 larvae, 5 days after infestation, read-out: effect in at least one of the two categories (mortality or growth inhibition). The protocol: 24-well microtiter plates with artificial diet were treated with aqueous test solutions prepared from 10′000 ppm DMSO stock solutions by pipetting. After drying, the plates were infested with L2 larvae (10 to 15 per well). The samples were assessed for mortality and growth inhibition in comparison to untreated samples 5 days after infestation.

The test system of series [4] is Spodoptera littoralis (Egyptian Cotton Leaf Worm). The series can be described thus: Activity against Spodoptera littoralis (Egyptian cotton leaf worm), cotton leaf discs sprayed. The following applies: for percent control (mortality, anti-feedant effect or growth inhibition) at 200 ppm: foliar, 72 h, application rate 200 ppm, L1 larvae, 3 days after infestation, read-out: control (mortality, anti-feeding effect or growth inhibition). As for the experimental part: Cotton leaf discs were placed onto agar in 24-well microtiter plates and sprayed with aqueous test solutions prepared from 10′000 ppm DMSO stock solutions. After drying the leaf discs were infested with five L1 larvae. The samples were assessed for mortality, anti-feeding effect, and growth inhibition in comparison to untreated samples 3 days after infestation. Control of Spodoptera littoralis by a test sample is given when at least one of the categories mortality, anti-feedant effect, and growth inhibition is higher than the untreated sample.

Series [5] concerns Euschistus heros (Neotropical Brown Stink Bug). The series can be described thus: Activity against Euschistus heros (neotropical brown stink bug), soybean leaves sprayed. As to conditions: 120 h, application rate 200 ppm, N2 nymphs, 5 days after infestation, read-out: effect in at least one of the two categories (mortality or growth inhibition). The protocol: Soybean leaves on agar in 24-well microtiter plates were sprayed with aqueous test solutions prepared from 10′000 ppm DMSO stock solutions. After drying the leaves were infested with N2 nymphs. The samples were assessed for mortality and growth inhibition in comparison to untreated samples 5 days after infestation.

The subject of series [6] is Myzus persicae (Green Peach Aphid). The experiment in a line: Activity against Myzus persicae (green peach aphid): systemic activity. As to conditions: for mortality at 24 ppm: Myzus persicae, 144 h, test rate 24 ppm, systemic, pea seedling roots in test solution, 6 days. The protocol:
Roots of pea seedlings infested with an aphid population of mixed ages were placed directly into aqueous test solutions prepared from 10′000 DMSO stock solutions. The samples were assessed for mortality 6 days after placing seedlings into test solutions.

Series [7] relates to Bemisia tabaci (Cotton White Fly). The experiment in a line: Activity against Bemisia tabaci (cotton white fly). As to conditions: 144 h, application rate 200 ppm, adult white flies, 6 days after incubation. The protocol: Cotton leaf discs were placed on agar in 24-well microtiter plates and sprayed with aqueous test solutions prepared from 10′000 ppm DMSO stock solutions. After drying the leaf discs were infested with adult white flies. The samples were checked for mortality 6 days after incubation.

14 compounds from patent US12152024B2, “Pesticidally active heterocyclic derivatives with sulphur and hydroxylamine substituents” (SYNGENTA PARTICIPATIONS AG, priority 2016, dated 2024) can be followed below.

Each structure is given as a SMILES string.

What is called mortality is the percentage killed. High values mean a strong lethal effect, low ones a weak lethal effect.

In the case of `CCSc1cccnc1-c1nc2cc(C(F)(F)F)n(OC)c(=O)c2n1C` [Compound A1, 2-(3-ethylsulfanyl-2-pyridyl)-5-methoxy-3-methyl-6-(trifluoromethyl) imidazo[4,5-c]pyridin-4-one], the percent effect (mortality or growth inhibition) at 200 ppm in series [1] and in series [3] was no less than 80% each time. In series [2], this compound returned a mortality at 200 ppm of no less than 80%. The percent control (mortality, anti-feedant effect or growth inhibition) at 200 ppm in series [4] was no less than 80%.

Turning to `CCS(=O)(=O)c1ccc(-n2ccnn2)nc1-c1nc2cc(C(F)(F)F)n(OC)c(=O)c2n1C` [Compound A4, 2-[3-ethylsulfonyl-6-(triazol-1-yl)-2-pyridyl]-5-methoxy-3-methyl-6-(trifluoromethyl)imidazo[4,5-c]pyridin-4-one], the percent effect (mortality or growth inhibition) at 200 ppm in series [1], in series [5] and in series [3] was no less than 80% throughout. In addition, the mortality at 200 ppm in series [2] and in series [7] was no less than 80% in each case. Also, the mortality at 24 ppm in series [6] was no less than 80%. Also, the percent control (mortality, anti-feedant effect or growth inhibition) at 200 ppm in series [4] is no less than 80%.

For the compound `CCS(=O)(=O)c1ccc(-n2nccn2)nc1-c1nc2cc(C(F)(F)F)n(OC)c(=O)c2n1C` [Compound A5, 2-[3-ethylsulfonyl-6-(triazol-2-yl)-2-pyridyl]-5-methoxy-3-methyl-6-(trifluoromethyl)imidazo[4,5-c]pyridin-4-one], the percent effect (mortality or growth inhibition) at 200 ppm in series [1], in series [5] and in series [3] was no less than 80% each time. The same compound displayed a mortality at 200 ppm in series [2] of no less than 80%. In series [6], the mortality at 24 ppm is no less than 80%. The percent control (mortality, anti-feedant effect or growth inhibition) at 200 ppm in series [4] was no less than 80%.

Turning to `CCS(=O)(=O)c1cc(C(F)(F)F)cnc1-c1nc2cc(C(F)(F)F)n(OC)c(=O)c2n1C` [Compound A6, 2-[3-ethylsulfonyl-5-(trifluoromethyl)-2-pyridyl]-5-methoxy-3-methyl-6-(trifluoromethyl)imidazo[4,5-c]pyridin-4-one], the percent effect (mortality or growth inhibition) at 200 ppm in series [1], in series [5] and in series [3] was no less than 80% in each case. This compound returned a mortality at 200 ppm in series [2] of no less than 80%. The same compound had a mortality at 24 ppm in series [6] of no less than 80%. For the same compound, in series [4], the percent control (mortality, anti-feedant effect or growth inhibition) at 200 ppm was no less than 80%.

Regarding `CCS(=O)(=O)c1ccccc1-c1nc2cc(C(F)(F)F)n(OC)c(=O)c2n1C` [Compound A7, 2-(2-ethylsulfonylphenyl)-5-methoxy-3-methyl-6-(trifluoromethyl)imidazo[4,5-c]pyridin-4-one], the percent effect (mortality or growth inhibition) at 200 ppm in series [1], in series [5] and in series [3] was no less than 80% throughout. In series [2], this compound had a mortality at 200 ppm of no less than 80%. This compound also gave a mortality at 24 ppm in series [6] of no less than 80%. Besides, the percent control (mortality, anti-feedant effect or growth inhibition) at 200 ppm in series [4] is no less than 80%.

Turning to `CCS(=O)(=O)c1cc(C(C)(C)C#N)ccc1-c1nc2cc(C(F)(F)F)n(OC)c(=O)c2n1C` [Compound A15, 2-[3-ethylsulfonyl-4-[5-methoxy-3-methyl-4-oxo-6-(trifluoromethyl)imidazo[4,5-c]pyridin-2-yl]phenyl]-2-methyl-propanenitrile], the percent effect (mortality or growth inhibition) at 200 ppm in series [1], in series [5] and in series [3] was no less than 80% throughout. The mortality at 200 ppm in series [2] and in series [7] was no less than 80% throughout. In series [6], this compound had a mortality at 24 ppm of no less than 80%.

Consider `CCS(=O)(=O)c1cc(Br)c(N)nc1-c1nc2cc(C(F)(F)F)n(OC)c(=O)c2n1C` [Compound A16, 2-(6-amino-5-bromo-3-ethylsulfonyl-2-pyridyl)-5-methoxy-3-methyl-6-(trifluoromethyl)imidazo[4,5-c]pyridin-4-one], for which the percent effect (mortality or growth inhibition) at 200 ppm in series [1], in series [5] and in series [3] was no less than 80% throughout. The compound also showed a mortality at 200 ppm in series [2] of no less than 80%. In addition, the percent control (mortality, anti-feedant effect or growth inhibition) at 200 ppm in series [4] was no less than 80%.

As for `CCSc1cc(Br)cnc1-c1nc2cc(C(F)(F)F)n(OC)c(=O)c2n1C` [Compound A19, 2-(5-bromo-3-ethylsulfanyl-2-pyridyl)-5-methoxy-3-methyl-6-(trifluoromethyl)imidazo[4,5-c]pyridin-4-one], the percent effect (mortality or growth inhibition) at 200 ppm in series [1], in series [5] and in series [3] was no less than 80% in each case. This compound also registered a mortality at 200 ppm in series [2] of no less than 80%. Also, the percent control (mortality, anti-feedant effect or growth inhibition) at 200 ppm in series [4] is no less than 80%.

As to `CCSc1cc(C(F)(F)F)cnc1-c1nc2cc(C(F)(F)F)n(OC)c(=O)c2n1C` [Compound A21, 2-[3-ethylsulfanyl-5-(trifluoromethyl)-2-pyridyl]-5-methoxy-3-methyl-6-(trifluoromethyl)imidazo[4,5-c]pyridin-4-one], the percent effect (mortality or growth inhibition) at 200 ppm in series [1], in series [5] and in series [3] was no less than 80% throughout. The same compound yielded a mortality at 200 ppm in series [2] of no less than 80%. In addition, the percent control (mortality, anti-feedant effect or growth inhibition) at 200 ppm in series [4] is no less than 80%.

`CCSc1ccccc1-c1nc2cc(C(F)(F)F)n(OC)c(=O)c2n1C` [Compound A22, 2-(2-ethylsulfanylphenyl)-5-methoxy-3-methyl-6-(trifluoromethyl)imidazo[4,5-c]pyridin-4-one]: the percent effect (mortality or growth inhibition) at 200 ppm in series [1], in series [5] and in series [3] was no less than 80% in each case. In series [2], this compound came in with a mortality at 200 ppm of no less than 80%. In series [6], this compound registered a mortality at 24 ppm of no less than 80%. The percent control (mortality, anti-feedant effect or growth inhibition) at 200 ppm in series [4] was no less than 80%.

Turning to `CCSc1cc(C2(C#N)CC2)ccc1-c1nc2cc(C(F)(F)F)n(OC)c(=O)c2n1C` [Compound A23, 1-[3-ethylsulfanyl-4-[5-methoxy-3-methyl-4-oxo-6-(trifluoromethyl)imidazo[4,5-c]pyridin-2-yl]phenyl]cyclopropanecarbonitrile], the percent effect (mortality or growth inhibition) at 200 ppm in series [1], in series [5] and in series [3] was no less than 80% in each case. In series [4], the percent control (mortality, anti-feedant effect or growth inhibition) at 200 ppm was no less than 80%.

With `CCSc1cc(C(C)(C)C#N)cnc1-c1nc2cc(C(F)(F)F)n(OC)c(=O)c2n1C` [Compound A24, 2-[5-ethylsulfanyl-6-[5-methoxy-3-methyl-4-oxo-6-(trifluoromethyl)imidazo[4,5-c]pyridin-2-yl]-3-pyridyl]-2-methyl-propanenitrile], the percent effect (mortality or growth inhibition) at 200 ppm in series [1], in series [5] and in series [3] was no less than 80% throughout.

As for `CCSc1cc(C(C)(C)C#N)ccc1-c1nc2cc(C(F)(F)F)n(OC)c(=O)c2n1C` [Compound A25, 2-[3-ethylsulfanyl-4-[5-methoxy-3-methyl-4-oxo-6-(trifluoromethyl)imidazo[4,5-c]pyridin-2-yl]phenyl]-2-methyl-propanenitrile], the percent effect (mortality or growth inhibition) at 200 ppm in series [1] and in series [5] was no less than 80% each time.

For the compound `CCS(=O)(=O)c1cccnc1-c1nc2cc(C(F)(F)F)n(OC)c(=O)c2n1C` [drawing 144, reference compound], the “Mortality (%)” value in series [1] (concentration 50 ppm) was 0%; in series [2] (Myzus persicae (feeding/contact), concentration 50 ppm), 50%; in series [6] (Myzus persicae (systemic), concentration 1.5 ppm), 0%; in series [3] (concentration 12.5 ppm), 0%; in series [4] (concentration 12.5 ppm), 0%.
